Consider 43 compounds from ChEMBL document CHEMBL3351272, “Sequential synthesis of amino-1,4-naphthoquinone-appended triazoles and triazole-chromene hybrids and their antimycobacterial evaluation” (Eur J Med Chem, 2014).

A word on the IC90: it is the concentration at which the effect reaches the 90% level. For orientation: MIC means the smallest concentration in the dilution series that meets the test's criterion for growth inhibition. What is called IC50 is the concentration needed to halve the response being measured.

In test [1] the test system is Mycobacterium tuberculosis. Nature of the test: Antimycobacterial activity against Mycobacterium tuberculosis H37Rv assessed as growth inhibition by microdilution AlamarBlue broth assay. Type of test: functional, organism-based. For orientation: Broth dilution looks for growth in wells or tubes with falling amounts of substance.
Test [2] relates to Mycobacterium tuberculosis. Nature of the test: Ratio of pyrimethamine IC50 to compound IC50 for Mycobacterium tuberculosis H37Rv assessed as growth inhibition by microdilution AlamarBlue broth assay. Type of test: functional.
In test [3] the test system is Mycobacterium tuberculosis. Briefly: Ratio of cycloserine IC50 to compound IC50 for Mycobacterium tuberculosis H37Rv assessed as growth inhibition by microdilution AlamarBlue broth assay. The class given is functional.

Each structure is given as a SMILES string.

On to `NNC(=O)c1ccncc1` [ISONIAZID], for which, in test [1], the IC90 was 0.29 µM and the MIC was found to be 0.31 µM.

In the case of `O=C1C=C(N(Cc2cn(Cc3ccccc3)nn2)c2ccccc2Cl)C(=O)c2ccccc21`, in test [1], the IC50 is 15.3 µM, the IC90 came out at 44.3 µM and the MIC is 50 µM.

Consider `C=CCn1cc(CN(C2=CC(=O)c3ccccc3C2=O)c2ccc(Cl)cc2)nn1`, for which, in test [1], the IC50 amounted to 21.6 µM, the IC90 amounted to 45.1 µM and the MIC stood at 50 µM.

Turning to `CCOC(=O)Cn1cc(CN(C2=CC(=O)c3ccccc3C2=O)c2ccc(F)cc2)nn1`, in test [1], the IC50 came out at 17.2 µM, the IC90 was determined as 36.5 µM and the MIC was 50 µM.

As to `CCc1nc(N)nc(N)c1-c1ccc(Cl)cc1` [PYRIMETHAMINE], in test [1], the IC50 is 37.4 µM, the IC90 was 75 µM and the MIC amounted to 100 µM.

Regarding `NCC[C@H](O)C(=O)N[C@@H]1C[C@H](N)[C@@H](O[C@H]2O[C@H](CN)[C@@H](O)[C@H](O)[C@H]2O)[C@H](O)[C@H]1O[C@H]1O[C@H](CO)[C@@H](O)[C@H](N)[C@H]1O` [AMIKACIN], in test [1], the IC90 is 0.08 µM and the MIC amounted to 0.16 µM.

Turning to `Cc1ccc(N(Cc2cn(Cc3ccccc3)nn2)C2=CC(=O)c3ccccc3C2=O)cc1`, in test [1], the IC50 amounted to 17 µM, the IC90 was found to be 38.9 µM and the minimum inhibitory concentration (MIC) worked out at 50 µM.

With `COc1cccc(N(Cc2cn(CC#N)nn2)C2=CC(=O)c3ccccc3C2=O)c1`, in test [1], the IC50 came out at 16.3 µM, the IC90 amounted to 25.5 µM and the MIC amounted to 50 µM.

Take `N=c1oc2ccc(Cl)cc2cc1-n1cc(CN(C2=CC(=O)c3ccccc3C2=O)c2ccc(F)cc2)nn1`: in test [1], the IC50 came out at 3.18 µM, the IC90 amounted to 9.86 µM and the MIC came to 25 µM.

Take `C=CCn1cc(CN(C2=CC(=O)c3ccccc3C2=O)c2ccccc2)nn1`: in test [1], the IC50 amounted to 25.5 µM, the IC90 stood at 55.4 µM and the MIC amounted to 100 µM.

Turning to `COc1cccc(N(Cc2cn(-c3cc4ccccc4oc3=N)nn2)C2=CC(=O)c3ccccc3C2=O)c1`, in test [1], the IC50 was 18.6 µM, the IC90 came out at 37.7 µM and the MIC was determined as 50 µM.

Regarding `Cc1ccc(N(Cc2cn(-c3cc4ccccc4oc3=N)nn2)C2=CC(=O)c3ccccc3C2=O)c(C)c1`, in test [1], the IC50 amounted to 21.6 µM, the IC90 was 55.1 µM and the MIC was determined as 100 µM.

Turning to `C=CCn1cc(CN(C2=CC(=O)c3ccccc3C2=O)c2ccccc2C)nn1`, in test [1], the IC50 was 15.3 µM, the IC90 came to 34.3 µM and the MIC was 50 µM.

For the compound `C=CCn1cc(CN(C2=CC(=O)c3ccccc3C2=O)c2cccc(OC)c2)nn1`, in test [1], the 50% inhibitory concentration (IC50) turned out to be 24.9 µM, the IC90 stood at 36.4 µM and the MIC was determined as 50 µM.

In the case of `CCOC(=O)Cn1cc(CN(C2=CC(=O)c3ccccc3C2=O)c2ccc(C)cc2)nn1`, in test [1], the IC50 was 11.9 µM, the IC90 was determined as 27.9 µM and the MIC came to 50 µM.

Turning to `N#CCn1cc(CN(C2=CC(=O)c3ccccc3C2=O)c2ccccc2Cl)nn1`, in test [1], the IC50 came out at 11.2 µM, the IC90 was determined as 25.9 µM and the MIC was determined as 50 µM.

`Cc1ccc(N(Cc2cn(-c3cc4cc(Br)ccc4oc3=N)nn2)C2=CC(=O)c3ccccc3C2=O)cc1`: in test [1], the 50% inhibitory concentration (IC50) worked out at 21.9 µM, the IC90 amounted to 44.6 µM and the MIC was 100 µM.

In the case of `Cc1ccc2oc(=N)c(-n3cc(CN(C4=CC(=O)c5ccccc5C4=O)c4ccccc4)nn3)cc2c1`, in test [1], the IC50 was 18.6 µM, the IC90 was found to be 27.7 µM and the MIC is 50 µM.

Take `Cc1ccc(N(Cc2cn(C3=CC(=O)c4ccccc4C3=O)nn2)C2=CC(=O)c3ccccc3C2=O)cc1`: in test [1], the IC50 stood at 28.6 µM, the IC90 was found to be 37.7 µM and the MIC was determined as 50 µM.

Consider `O=C(Cn1cc(CN(C2=CC(=O)c3ccccc3C2=O)c2ccc(Cl)cc2Cl)nn1)c1ccccc1`, for which, in test [1], the IC50 amounted to 13.3 µM, the concentration for an effect of 90% (IC90) was determined as 27.9 µM and the MIC was determined as 50 µM.

For the compound `Cc1ccc(N(Cc2cn(CC(=O)c3ccccc3)nn2)C2=CC(=O)c3ccccc3C2=O)cc1`, in test [1], the IC50 turned out to be 14 µM, the IC90 came to 28.9 µM and the MIC was found to be 50 µM.

In the case of `C=CCn1cc(CN(C2=CC(=O)c3ccccc3C2=O)c2ccc(F)cc2)nn1`, in test [1], the IC50 turned out to be 5.87 µM, the IC90 is 14.6 µM and the MIC amounted to 25 µM.

Turning to `CCOC(=O)Cn1cc(CN(C2=CC(=O)c3ccccc3C2=O)c2ccc(Br)cc2)nn1`, in test [1], the IC50 was 8.46 µM, the concentration for an effect of 90% (IC90) came out at 16.4 µM and the MIC came to 25 µM.

Take `O=C1C=C(N(Cc2cn(Cc3ccccc3)nn2)c2ccc(Cl)cc2)C(=O)c2ccccc21`: in test [1], the IC50 was 2.58 µM, the concentration for an effect of 90% (IC90) stood at 15.1 µM and the MIC stood at 25 µM.

As to `Cc1ccccc1N(Cc1cn(CC(=O)c2ccccc2)nn1)C1=CC(=O)c2ccccc2C1=O`, in test [1], the IC50 turned out to be 19.1 µM, the IC90 turned out to be 37.9 µM and the minimal inhibitory concentration (MIC) is 50 µM.

As to `N#CCn1cc(CN(C2=CC(=O)c3ccccc3C2=O)c2ccc(F)cc2)nn1`, in test [1], the IC50 is 2.81 µM, the 90% effect concentration (IC90) was determined as 6.13 µM and the MIC was 15 µM.

With `N=c1oc2ccccc2cc1-n1cc(CN(C2=CC(=O)c3ccccc3C2=O)c2ccccc2Cl)nn1`, in test [1], the IC50 stood at 27.2 µM, the IC90 is 36.5 µM and the MIC turned out to be 50 µM.

`CC[C@@H](CO)NCCN[C@@H](CC)CO` [ETHAMBUTOL]: in test [1], the half-maximal inhibitory concentration (IC50) was below 1.56 µM and the minimum inhibitory concentration (MIC) turned out to be 12.5 µM.

In the case of `N=c1oc2ccccc2cc1-n1cc(CN(C2=CC(=O)c3ccccc3C2=O)c2ccc(F)cc2)nn1`, in test [1], the IC50 was determined as 8.57 µM, the IC90 was 17.7 µM and the MIC is 25 µM.

As for `O=C1C=C(N(Cc2cn(Cc3ccccc3)nn2)c2ccc(Br)cc2)C(=O)c2ccccc21`, in test [1], the IC50 was found to be 28.7 µM, the IC90 came to 47.9 µM and the MIC amounted to 100 µM.

With `O=C1C=C(N(Cc2cn(Cc3ccccc3)nn2)c2ccc(Cl)cc2Cl)C(=O)c2ccccc21`, in test [1], the IC50 turned out to be 5.38 µM, the 90% effect concentration (IC90) was found to be 9.97 µM and the MIC was 25 µM.

For the compound `C=CCn1cc(CN(C2=CC(=O)c3ccccc3C2=O)c2ccccc2Cl)nn1`, in test [1], the IC50 turned out to be 6.38 µM, the IC90 came out at 12 µM and the minimum inhibitory concentration (MIC) is 25 µM.

For `N[C@@H]1CONC1=O` [CYCLOSERINE], the minimum inhibitory concentration (MIC) in test [1] was determined as 25 µM.

In the case of `Cc1ccc(N(Cc2cn(-c3cc4ccccc4oc3=N)nn2)C2=CC(=O)c3ccccc3C2=O)cc1`, in test [1], the IC50 is 23.9 µM, the IC90 was found to be 47.6 µM and the MIC is 50 µM.

As for `Cc1ccccc1N(Cc1cn(CC#N)nn1)C1=CC(=O)c2ccccc2C1=O`, in test [1], the IC50 stood at 10.6 µM, the IC90 came out at 19.8 µM and the MIC was found to be 50 µM.

On to `CCOC(=O)Cn1cc(CN(C2=CC(=O)c3ccccc3C2=O)c2cccc(OC)c2)nn1`, for which, in test [1], the IC50 was 18.6 µM, the IC90 is 27.7 µM and the MIC was 50 µM.

Consider `O=C1C=C(N(Cc2cn(C3=CC(=O)c4ccccc4C3=O)nn2)c2ccc(Br)cc2)C(=O)c2ccccc21`, for which, in test [1], the IC50 is 19.2 µM, the IC90 was 46.5 µM and the MIC is 50 µM.

As for `O=C1C=C(N(Cc2cn(Cc3ccccc3)nn2)c2ccc(C(F)(F)F)cc2)C(=O)c2ccccc21`, in test [1], the 50% inhibitory concentration (IC50) worked out at 1.87 µM, the IC90 worked out at 4.6 µM and the MIC is 10 µM. For the same compound, in test [2], the “Ratio IC50” value was determined as 20. In test [3], the “Ratio IC50” value was determined as 6.

For `CCOC(=O)Cn1cc(CN(C2=CC(=O)c3ccccc3C2=O)c2ccc(Cl)cc2)nn1`, in test [1], the IC50 was 3.28 µM, the 90% effect concentration (IC90) stood at 7.86 µM and the MIC worked out at 25 µM.

`O=C1C=C(N(Cc2cn(C3=CC(=O)c4ccccc4C3=O)nn2)c2ccc(Cl)cc2)C(=O)c2ccccc21`: in test [1], the IC50 is 7.2 µM, the IC90 came to 16.5 µM and the MIC was 25 µM.

In the case of `CCOC(=O)Cn1cc(CN(C2=CC(=O)c3ccccc3C2=O)c2ccccc2Cl)nn1`, in test [1], the IC50 stood at 18.3 µM, the IC90 amounted to 36.5 µM and the MIC was determined as 50 µM.

As to `COc1cccc(N(Cc2cn(Cc3ccccc3)nn2)C2=CC(=O)c3ccccc3C2=O)c1`, in test [1], the IC50 was determined as 24.9 µM, the IC90 was determined as 36.4 µM and the minimal inhibitory concentration (MIC) is 50 µM.

As for `N#CCn1cc(CN(C2=CC(=O)c3ccccc3C2=O)c2ccccc2)nn1`, in test [1], the IC50 came to 9.95 µM, the IC90 was 21.9 µM and the MIC was found to be 25 µM.
